The values below come from patent US10766878B2, “Sulfonylcycloalkyl carboxamide compounds” (Genentech, Inc., priority 2017, dated 2020).

This assay addresses human TRPA1 (Homo sapiens (Human), UniProt O75762). The assay is described as follows: hTRPA1 CHO Ca2+ AUC EVO (IC50); FLIPR Tetra block of cinnamaldehyde induced calcium influx. The note with it: CHO cells expressing TRPA1, 75 uM cinnamaldehyde agonist. The class given is cell-based. The protocol: IC50 values ([…]) of compounds on the human and rat TRPA1 channels were determined using a FLIPR Tetra instrument. CHO cells expressing TRPA1 were plated into 384-well plates, incubated overnight at 37 C, and loaded with BD calcium indicator dye for 1 hr at 37° C. followed by 15 minutes. at room temperature. The assay buffer was Hank's Balanced Salt Solution (HBSS) containing 20 mM HEPES (pH readjusted to 7.4) along with 0.02% BSA.
Following dye load and plate cool down, compounds were added to the cells using FLIPR Tetra. Plates were then incubated with compounds for 20 minutes at room temperature prior to adding agonist. Following this incubation, ˜EC80 concentration of cinnamaldehyde (75 uM for human TRPA1 and 45 uM for rat TRPA1) was added to active the channels and block of cinnamaldehyde induced calcium influx was measured.
IC50 values were fit with a standard Hill function, keeping the Hill coefficient (n) fixed to 1.5. Fixing the Hill coefficient will generally reduce variability of the IC50 determination. The IC50 values were individually examined to make sure the MIN and MAX points were set correctly prior to validation of the results.

As usually defined, the IC50 is the concentration at which inhibition is half-maximal.

Chain of human TRPA1 (O75762 whole entry): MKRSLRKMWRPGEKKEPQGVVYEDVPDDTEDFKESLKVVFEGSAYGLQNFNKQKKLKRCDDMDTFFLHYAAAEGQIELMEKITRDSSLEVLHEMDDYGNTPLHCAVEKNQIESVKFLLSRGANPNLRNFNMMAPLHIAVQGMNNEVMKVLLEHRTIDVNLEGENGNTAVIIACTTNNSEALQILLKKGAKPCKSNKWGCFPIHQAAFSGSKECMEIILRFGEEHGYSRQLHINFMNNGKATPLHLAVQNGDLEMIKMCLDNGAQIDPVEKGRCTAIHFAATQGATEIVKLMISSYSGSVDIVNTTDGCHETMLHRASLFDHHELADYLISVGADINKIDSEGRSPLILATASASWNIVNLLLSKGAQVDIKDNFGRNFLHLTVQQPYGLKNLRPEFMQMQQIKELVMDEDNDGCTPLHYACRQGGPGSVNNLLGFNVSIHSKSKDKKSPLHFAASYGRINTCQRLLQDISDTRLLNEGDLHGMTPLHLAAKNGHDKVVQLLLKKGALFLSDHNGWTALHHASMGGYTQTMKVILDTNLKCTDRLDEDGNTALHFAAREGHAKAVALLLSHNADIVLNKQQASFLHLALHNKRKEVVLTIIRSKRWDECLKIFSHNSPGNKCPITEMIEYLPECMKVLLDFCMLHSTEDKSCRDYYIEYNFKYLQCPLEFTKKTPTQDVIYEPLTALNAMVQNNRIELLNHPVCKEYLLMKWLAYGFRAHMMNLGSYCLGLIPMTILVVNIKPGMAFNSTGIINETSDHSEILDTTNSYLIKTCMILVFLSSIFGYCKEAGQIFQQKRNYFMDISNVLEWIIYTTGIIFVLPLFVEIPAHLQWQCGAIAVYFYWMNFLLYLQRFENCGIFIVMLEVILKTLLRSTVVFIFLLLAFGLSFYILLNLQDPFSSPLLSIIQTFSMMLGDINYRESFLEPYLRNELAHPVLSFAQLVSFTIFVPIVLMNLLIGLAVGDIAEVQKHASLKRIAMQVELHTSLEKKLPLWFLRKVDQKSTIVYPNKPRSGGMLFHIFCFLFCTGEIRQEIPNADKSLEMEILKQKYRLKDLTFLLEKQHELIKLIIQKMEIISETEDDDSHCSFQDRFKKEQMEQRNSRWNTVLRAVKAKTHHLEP

With `CC1(C(=O)NCc2cn(-c3ccc(C(F)(F)F)cc3)nc2Cl)CCCC1S(=O)(=O)c1ccc(F)cc1` (single isomer, unassigned; enantiomer 1) [Example 5, N-((3-chloro-1-(4-(trifluoromethyl)phenyl)-1H-pyrazol-4-yl)methyl)-2-(4-fluorophenylsulfonyl)-1-methylcyclopentanecarboxamide (Enantiomer 1)], the IC50 runs as follows: (Table 1) 8.79 nM; (Table 3) 8.79 nM.
In the case of `COc1nn(-c2ccc(C(F)(F)F)cc2)cc1CNC(=O)C1CCC1(C)S(=O)(=O)c1ccc(F)cc1` (single isomer, unassigned; enantiomer 1) [Example 22, 2-(4-fluorophenylsulfonyl)-N-(3-methoxy-1-(4-(trifluoromethyl)phenyl)-1H-pyrazol-4-yl)methyl)-2-methylcyclobutanecarboxamide (Enantiomer 1)], for the setting “Table 3”, the IC50 came to 71.7 nM.
In the case of `CC1(C(=O)NCc2cn(-c3ccc(C(F)(F)F)nc3)nc2Cl)CCCC1S(=O)(=O)c1ccc(F)cc1` (single isomer, unassigned; enantiomer 1) [Example 31, N-((3-chloro-1-(6-(trifluoromethyl)pyridin-3-yl)-1H-pyrazol-4-yl)methyl)-2-(4-fluorophenylsulfonyl)-1-methylcyclopentanecarboxamide (Enantiomer 1)], the half-maximal inhibitory concentration (IC50) (Table 1) was determined as 39.2 nM and the IC50 (Table 3) turned out to be 39.2 nM.
Consider `COc1nn(-c2ccc(C(F)(F)F)nc2)cc1CNC(=O)C1(C)CCCC1S(=O)(=O)c1ccc(F)cc1` (single isomer, unassigned; enantiomer 1) [Example 34, 2-(4-fluorophenylsulfonyl)-N-((3-methoxy-1-(6-(trifluoromethyl)pyridin-3-yl)-1H-pyrazol-4-yl)methyl)-1-methylcyclopentanecarboxamide (Enantiomer 1)], for which the IC50 (Table 1) worked out at 33.1 nM and the IC50 (Table 3) came to 33.1 nM.
Regarding `COc1nn(-c2ccc(C(F)(F)F)nc2)cc1CC(=O)NC1CCC1S(=O)(=O)c1ccc(F)cc1` (single isomer, unassigned; enantiomer 2) [Example 12, N-(2-((4-fluorophenyl)sulfonyl)cyclobutyl)-2-(3-methoxy-1-(6-(trifluoromethyl)pyridin-3-yl)-1H-pyrazol-4-yl)acetamide (Enantiomer 2)], the concentration for half-maximal inhibition (IC50) (Table 3) is 213 nM.
As to `O=C(NCc1cn(-c2ccc(C(F)(F)F)cc2)nc1C(F)F)C1CCC1S(=O)(=O)c1ccc(F)cc1` (single isomer, unassigned; enantiomer 2) [Example 18, N-((3-(difluoromethyl)-1-(4-(trifluoromethyl)phenyl)-1H-pyrazol-4-yl)methyl)-2-(4-fluorophenylsulfonyl) cyclobutanecarboxamide (Enantiomer 2)], where the note is “Table 3”, the IC50 was 96 nM.
Regarding `COc1nn(-c2ccc(C(F)(F)F)cc2)cc1CNC(=O)C1CCC1(C)S(=O)(=O)c1ccc(F)cc1` (single isomer, unassigned; enantiomer 2) [Example 23, 2-(4-fluorophenylsulfonyl)-N-((3-methoxy-1-(4-(trifluoromethyl)phenyl)-1H-pyrazol-4-yl)methyl)-2-methylcyclobutanecarboxamide (Enantiomer 2)], the IC50 is 38 nM (Table 1) and 38 nM (Table 3).
For the compound `O=C(NCc1cn(-c2ccc(C(F)(F)F)nc2)nc1C(F)(F)F)C1CCC1S(=O)(=O)c1ccc(F)cc1` (single isomer, unassigned; enantiomer 2) [Example 25, 2-(4-fluorophenylsulfonyl)-N-((3-(trifluoromethyl)-1-(6-(trifluoromethyl)pyridin-3-yl)-1H-pyrazol-4-yl)methyl) cyclobutanecarboxamide (Enantiomer 2)], the IC50 (Table 3) was 192 nM.
Still for that read-out and setting: under `O=C(NCc1cn(-c2ccc(C(F)(F)F)cc2)nc1Cl)C1CCC1S(=O)(=O)c1ccc(F)cc1` (single isomer, unassigned; enantiomer 2) [Example 29, N-((3-chloro-1-(4-(trifluoromethyl)phenyl)-1H-pyrazol-4-yl)methyl)-2-(4-fluorophenylsulfonyl) cyclobutanecarboxamide (Enantiomer 2)] stands 65.8 nM; under `CC1(C(=O)NCc2cn(-c3ccc(C(F)(F)F)nc3)nc2Cl)CCCC1S(=O)(=O)c1ccc(F)cc1` (single isomer, unassigned; enantiomer 2) [Example 32, N-((3-chloro-1-(6-(trifluoromethyl)pyridin-3-yl)-1H-pyrazol-4-yl)methyl)-2-(4-fluorophenylsulfonyl)-1-methylcyclopentanecarboxamide (Enantiomer 2)], 85.7 nM.
Same read-out and setting: under `COc1nn(-c2ccc(C(F)(F)F)nc2)cc1CNC(=O)C1(C)CCCC1S(=O)(=O)c1ccc(F)cc1` (single isomer, unassigned; enantiomer 2) [Example 35, 2-(4-fluorophenylsulfonyl)-N-((3-methoxy-1-(6-(trifluoromethyl)pyridin-3-yl)-1H-pyrazol-4-yl)methyl)-1-methylcyclopentanecarboxamide (Enantiomer 2)] stands 199 nM.
As to `CC1(C(=O)NCc2cn(-c3ccc(C(F)(F)F)cc3)nc2Cl)CCCC1S(=O)(=O)c1ccc(F)cc1` (single isomer, unassigned; enantiomer 2) [Example 37, N-((3-chloro-1-(4-(trifluoromethyl)phenyl)-1H-pyrazol-4-yl)methyl)-2-(4-fluorophenylsulfonyl)-1-methylcyclopentanecarboxamide (Enantiomer 2)], the IC50 runs as follows: (Table 1) 23.9 nM; (Table 3) 23.9 nM.
As to `COc1nn(-c2ccc(C(F)(F)F)nc2)cc1CNC(=O)C1CCCC1S(=O)(=O)c1ccc(F)cc1` (single isomer, unassigned; enantiomer 2) [Example 39, 2-(4-fluorophenylsulfonyl)-N-((3-methoxy-1-(6-(trifluoromethyl)pyridin-3-yl)-1H-pyrazol-4-yl)methyl) cyclopentanecarboxamide (Enantiomer 2)], the IC50 (Table 3) amounted to 218 nM.
As for `O=C(NCc1cn(-c2ccc(C(F)(F)F)cc2)nc1Cl)C1CCCC1S(=O)(=O)c1ccc(F)cc1` (single isomer, unassigned; enantiomer 2) [Example 42, N-((3-chloro-1-(4-(trifluoromethyl)phenyl)-1H-pyrazol-4-yl)methyl)-2-(4-fluorophenylsulfonyl) cyclopentanecarboxamide (Enantiomer 2)], the IC50 by setting is: (Table 1) 45.5 nM; (Table 3) 45.5 nM.
Consider `O=C(NCc1cn(-c2ccc(C(F)(F)F)nc2)nc1C(F)(F)F)C1CCC1S(=O)(=O)c1ccc(F)cc1` (single isomer, unassigned; enantiomer 3) [Example 26, 2-(4-fluorophenylsulfonyl)-N-((3-(trifluoromethyl)-1-(6-(trifluoromethyl)pyridin-3-yl)-1H-pyrazol-4-yl)methyl) cyclobutanecarboxamide (Enantiomer 3)], for which the IC50 (Table 3) stood at 90.2 nM.
For the compound `O=C(NCc1cn(-c2ccc(C(F)(F)F)cc2)nc1Cl)C1CCC1S(=O)(=O)c1ccc(F)cc1` (single isomer, unassigned; enantiomer 3) [Example 30, N-((3-chloro-1-(4-(trifluoromethyl)phenyl)-1H-pyrazol-4-yl)methyl)-2-(4-fluorophenylsulfonyl) cyclobutanecarboxamide (Enantiomer 3)], the IC50 (Table 3) worked out at 56.7 nM.
On the same count and under the same terms, under `CC1(C(=O)NCc2cn(-c3ccc(C(F)(F)F)nc3)nc2Cl)CCCC1S(=O)(=O)c1ccc(F)cc1` (single isomer, unassigned; enantiomer 3) [Example 33, N-((3-chloro-1-(6-(trifluoromethyl)pyridin-3-yl)-1H-pyrazol-4-yl)methyl)-2-(4-fluorophenylsulfonyl)-1-methylcyclopentanecarboxamide (Enantiomer 3)] stands 88.5 nM; under `COc1nn(-c2ccc(C(F)(F)F)nc2)cc1CNC(=O)C1(C)CCCC1S(=O)(=O)c1ccc(F)cc1` (single isomer, unassigned; enantiomer 3) [Example 36, 2-(4-fluorophenylsulfonyl)-N-((3-methoxy-1-(6-(trifluoromethyl)pyridin-3-yl)-1H-pyrazol-4-yl)methyl)-1-methylcyclopentanecarboxamide (Enantiomer 3)], 62.2 nM.
On to `CC1(C(=O)NCc2cn(-c3ccc(C(F)(F)F)cc3)nc2Cl)CCCC1S(=O)(=O)c1ccc(F)cc1` (single isomer, unassigned; enantiomer 3) [Example 38, N-((3-chloro-1-(4-(trifluoromethyl)phenyl)-1H-pyrazol-4-yl)methyl)-2-(4-fluorophenylsulfonyl)-1-methylcyclopentanecarboxamide (Enantiomer 3)], for which the IC50 reads like this: (Table 1) 47.1 nM; (Table 3) 47.1 nM.
In the case of `O=C(NCc1cn(-c2ccc(C(F)(F)F)cc2)nc1C(F)F)[C@@H]1CC[C@@H]1S(=O)(=O)c1ccc(F)cc1` [Example 1, (1S,2S)-N-((3-(difluoromethyl)-1-(4-(trifluoromethyl)phenyl)-1H-pyrazol-4-yl)methyl)-2-(4-fluorophenylsulfonyl) cyclobutanecarboxamide], the IC50 (Table 3) was determined as 34.6 nM.
On the same count and under the same terms, under `O=C(Cc1cn(-c2cnc(C(F)(F)F)nc2)nc1C(F)(F)F)N[C@@H]1CC[C@@H]1[S+]([O-])c1ccc(F)cc1` (stereo partly drawn) [Example 2, N-((1R,2S)-2-(4-fluorophenylsulfinyl)cyclobutyl)-2-(3-(trifluoromethyl)-1-(2-(trifluoromethyl)pyrimidin-5-yl)-1H-pyrazol-4-yl)acetamide] stands 500 nM.
